This passage reports IC50 results from US9023865B2, “Compounds that are ERK inhibitors” (Merck Sharp & Dohme Corp., priority 2011, dated 2015).

Counter-ions that a name gives are not always drawn. Like-named read-outs stand apart in the source and are kept apart here.

The test addresses Active Human ERK2 (hERK2) (Homo sapiens (Human), UniProt P28482). Description: Active Human ERK2 (hERK2) Activity Assay (IMAP-FP). Type of test: biochemical. An outline of the steps: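 Phosphorylation by activated human ERK2 (0.5 nM) at 30 μM ATP, peptide substrate 900 nM unlabeled with 80 nM labeled, proceeds 60 min. IMAP beads stop the reaction; after 60 min equilibration, product is measured by fluorescence polarization.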

[1] abbreviates: phosphorylated active hERK2, 30 μM ATP, average, read-out: ERK 2 Human average IC50.
The mark [2] stands for this setting: read-out: AERK2 IC50 (Active human ERK2 Activity Assay).

Chain of Active Human ERK2 (hERK2) (P28482 whole entry): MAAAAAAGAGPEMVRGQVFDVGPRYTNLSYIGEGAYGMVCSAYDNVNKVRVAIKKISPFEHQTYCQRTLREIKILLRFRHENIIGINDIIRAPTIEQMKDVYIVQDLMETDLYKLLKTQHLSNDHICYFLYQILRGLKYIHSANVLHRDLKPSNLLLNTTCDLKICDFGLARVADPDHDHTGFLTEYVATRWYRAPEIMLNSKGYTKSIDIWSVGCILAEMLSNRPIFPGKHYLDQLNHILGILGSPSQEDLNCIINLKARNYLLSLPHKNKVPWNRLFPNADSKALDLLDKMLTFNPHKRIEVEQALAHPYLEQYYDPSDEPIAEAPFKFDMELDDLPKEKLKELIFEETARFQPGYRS

As usually defined, the IC50 is the concentration at which inhibition is half-maximal. As to `C[C@@H](NC(=O)Nc1cc2[nH]nc(C(=O)NCC3(N(C)C)CCC3)c2cn1)c1ccccc1` [Example 119], the IC50 under setting [1] was found to be 211 nM. With `CC(C)CC(O)CNC(=O)c1n[nH]c2cc(NC(=O)N[C@H](C)c3ccccc3)ncc12` (stereo partly drawn) [Example 135], the IC50 under setting [1] turned out to be 14.6 nM. For the compound `Cc1cc(-c2n[nH]c3cc(NC(=O)NCc4cc[nH]n4)ncc23)ccn1` [Example 419], the 50% inhibitory concentration (IC50) under setting [1] was determined as 2.72 nM. With `Cc1cc(-c2n[nH]c3cc(NC(=O)NC4CCCC(Oc5cccc(F)c5)C4)ncc23)ccn1` (stereo not drawn) [Example 648], under setting [1], the IC50 is 28.2 nM.

Take `COCCOC[C@@H](NC(=O)Nc1cc2[nH]nc(-c3cc(C)on3)c2cn1)c1ccccc1` [Example 700]: the half-maximal inhibitory concentration (IC50) under setting [1] is 11.9 nM. Consider `C[C@@H](NC(=O)Nc1cc2[nH]nc(-c3cn[nH]c3)c2cn1)c1ccc(F)c(Cl)c1` [Example 74, 1-[(1R)-1-(3-chloro-4-fluorophenyl)ethyl]-3-[3-(1H-pyrazol-4-yl)-1H-pyrazolo[4,3-c]pyridin-6-yl]urea], for which the IC50 is, setting by setting: under setting [1], 0.603 nM; under setting [2], 0.2 to 1.7 nM. Turning to `Cc1cc(-c2n[nH]c3cc(NC(=O)NC4CCc5ccccc54)ncc23)ccn1` (stereo not drawn) [Example 78, 1-(2,3-dihydro-1H-inden-1-yl)-3-[3-(2-methylpyridin-4-yl)-1H-pyrazolo[4,3-c]pyridin-6-yl]urea], the IC50 under setting [1] was found to be 5.39 nM.

In the case of `C[C@@H](NC(=O)Nc1cc2[nH]nc(-c3ccc4nncn4c3)c2cn1)c1ccc(F)cc1` [Example 246], the half-maximal inhibitory concentration (IC50) under setting [1] was determined as 0.581 nM. `Cc1cc(-c2n[nH]c3c(F)c(NC(=O)N[C@H](CO)c4ccccc4)ncc23)ccn1` [Example 544]: the half-inhibitory concentration (IC50) under setting [1] is 1.28 nM. The same measure, in the same setting: next, `CO[C@H]1CN(C(=O)c2n[nH]c3cc(NC(=O)N[C@H](C)c4ccccc4)ncc23)C[C@@H]1O` [Example 130]: 1970 nM. Regarding `Cc1cc(-c2n[nH]c3cc(NC(=S)NCc4ccccc4)ncc23)ccn1` [Example 94, 6-[(benzylcarbamothioyl)amino]-3-(2-methylpyridin-4-yl)-1H-pyrazolo[4,3-c]pyridin-5-ium trifluoroacetate], the half-inhibitory concentration (IC50) under setting [1] is 11.9 nM. With `Cc1cc(-c2n[nH]c3cc(NC(=O)NC[C@@H](C)c4ccccc4)ncc23)ccn1` [Example 622], the IC50 under setting [1] amounted to 0.789 nM. On to `COc1cc(-c2n[nH]c3cc(NC(=O)N[C@H](C)c4ccccc4)ncc23)ccn1` [Example 661], for which the IC50 under setting [1] was 0.928 nM.

With `Cc1cc(-c2n[nH]c3cc(NC(=O)NCc4ccccc4OC(F)(F)F)ncc23)ccn1` [Example 523], under setting [1], the IC50 was 0.605 nM. Take `COC[C@@H](NC(=O)Nc1cc2[nH]nc(-c3ccc4nn(C)cc4c3)c2cn1)c1ccccc1` [Example 613]: the IC50 under setting [1] worked out at 0.297 nM.

On to `C[C@@H](NC(=O)Nc1cc2[nH]nc(-c3ccnc(N4CCOCC4)c3)c2cn1)c1ccc(F)cc1` [Example 281], for which the concentration for half-maximal inhibition (IC50) under setting [1] worked out at 1.91 nM. In the case of `O=C(NCc1ccc(F)c(Cl)c1)Nc1cc2[nH]nc(-c3ccnc(F)c3)c2cn1` [Example 58, 1-(3-chloro-4-fluorobenzyl)-3-[3-(2-fluoropyridin-4-yl)-1H-pyrazolo[4,3-c]pyridin-6-yl]urea], the half-inhibitory concentration (IC50) was 1 nM under setting [1] and 0.2 to 1.7 nM under setting [2]. On to `Cc1cc(-c2n[nH]c3cc(NC(=O)N[C@H](C)c4ccc(C(F)(F)F)nc4)ncc23)ccn1` [Example 527], for which the half-maximal inhibitory concentration (IC50) under setting [1] came to 567 nM. As for `CN1CCOC(CNC(=O)Nc2cc3[nH]nc(-c4ccc(F)cc4)c3cn2)C1` (stereo not drawn) [Example 226], under setting [1], the IC50 was found to be 1.58 nM. Same read-out and setting: next, `Cc1cc(-c2n[nH]c3cc(NC(=O)NCC(O)C4CCCCC4)ncc23)ccn1` (stereo not drawn) [Example 389]: 4.11 nM; `Cc1cc(-c2n[nH]c3cc(NC(=O)NC(CN)c4ccccc4)ncc23)ccn1` (stereo not drawn) [Example 361]: 0.232 nM; `Cc1cc(-c2n[nH]c3cc(NC(=O)NCCC(=O)Nc4ccccc4Br)ncc23)ccn1` [Example 399]: 2.06 nM.

`Cc1cc(-c2n[nH]c3cc(NC(=O)NCc4cnsn4)ncc23)ccn1` [Example 425]: the IC50 under setting [1] was found to be 0.323 nM. `COc1ccc(C2(NC(=O)Nc3cc4[nH]nc(-c5ccnc(C)c5)c4cn3)CC2)cc1` [Example 359]: under setting [1], the IC50 is 9.27 nM.

Take `COC[C@H](NC(=O)Nc1cc2[nH]nc(-c3ccnc(C)c3)c2cn1)c1ccccn1` [Example 415]: the IC50 under setting [1] was 20 nM. Consider `CO[C@H]1CN(C)C[C@@H]1NC(=O)Nc1cc2[nH]nc(-c3ccc(F)cc3)c2cn1` [Example 317], for which the IC50 under setting [1] is 1.13 nM.

On to `Cc1cc(-c2n[nH]c3cc(NC(=O)N[C@H](C)c4cc(Cl)ccn4)ncc23)ccn1` [Example 229], for which, under setting [1], the concentration for half-maximal inhibition (IC50) came out at 1.06 nM. For `Cc1cncc(-c2n[nH]c3cc(NC(=O)N[C@H](C)c4ccc(F)cc4)ncc23)c1` [Example 308], under setting [1], the IC50 was 1.8 nM.

As for `COC[C@@H](NC(=O)Nc1cc2[nH]nc(-c3ccn4ncnc4c3)c2cn1)c1ccc(F)cc1` [Example 300], the IC50 under setting [1] was 1.34 nM. As to `Cc1cc(-c2n[nH]c3cc(NC(=O)N[C@@H]4CN(CC(F)(F)F)C[C@H]4c4ccccc4)ncc23)ccn1` [Example 330], under setting [1], the IC50 came to 3.06 nM. On to `O=C(NCc1ccc(F)cc1)Nc1cc2[nH]nc(-c3ccc(OC(F)(F)F)cc3)c2cn1` [Example 675], for which, under setting [1], the half-maximal inhibitory concentration (IC50) turned out to be 89.2 nM. Regarding `COC[C@@H](NC(=O)Nc1cc2[nH]nc(-c3cc(C)on3)c2cn1)c1ccc(F)cc1` [Example 688], the IC50 under setting [1] came out at 5.39 nM. On to `Cc1cc(-c2n[nH]c3cc(NC(=O)NC4CCN(S(C)(=O)=O)c5ccccc54)ncc23)ccn1` (stereo not drawn) [Example 277], for which, under setting [1], the IC50 turned out to be 1.35 nM. On to `COc1cncc(-c2n[nH]c3cc(NC(=O)N[C@H](C)c4ccc(F)cc4)ncc23)c1` [Example 253], for which the IC50 under setting [1] is 3.16 nM. On the same count and under the same terms, under `CC(CN(C)C)NC(=O)Nc1cc2[nH]nc(-c3ccc(F)cc3)c2cn1` (stereo not drawn) [Example 228] stands 70.3 nM. Still for that read-out and setting: under `O=C(Nc1cc2[nH]nc(-c3ccncc3)c2cn1)N[C@H](CO)c1ccccc1` [Example 546] stands 0.358 nM; under `Cc1cc(-c2n[nH]c3cc(NC(=O)NCc4cccc(C)n4)ncc23)ccn1` [Example 315], 1.93 nM. Still for that read-out and setting: next, `Cc1cc(-c2n[nH]c3cc(NC(=O)NC(C)(C)CO)ncc23)ccn1` [Example 203]: 104 nM.

For the compound `Cn1cc(-c2n[nH]c3cc(NC(=O)NCc4ccc(F)c(Cl)c4)ncc23)cn1` [Example 60, 1-(3-chloro-4-fluorobenzyl)-3-[3-(1-methyl-1H-pyrazol-4-yl)-1H-pyrazolo[4,3-c]pyridin-6-yl]urea], the IC50 by setting is: under setting [1], 0.251 nM; under setting [2], 0.2 to 1.7 nM. For the compound `Cc1cc(-c2n[nH]c3cc(NC(=O)N[C@H](C)c4ccc(F)cn4)ncc23)ccn1` [Example 503], the concentration for half-maximal inhibition (IC50) under setting [1] worked out at 0.858 nM. On to `Cc1cc(-c2n[nH]c3cc(NC(=O)N[C@@H]4CN[C@H](c5ccccc5)C4)ncc23)ccn1` [Example 405], for which the half-inhibitory concentration (IC50) under setting [1] worked out at 14.2 nM. Turning to `C[C@@H](NC(=O)Nc1cc2[nH]nc(C(=O)NCc3cccnn3)c2cn1)c1ccccc1` [Example 122], under setting [1], the concentration for half-maximal inhibition (IC50) came to 2.55 nM. Same read-out and setting: under `Cc1cc(-c2n[nH]c3cc(NC(=O)N[C@H](c4ccccc4)[C@@H]4CCCO4)ncc23)ccn1` [Example 552] stands 23.8 nM. `C[C@@H](NC(=O)Nc1cc2[nH]nc(C3CCC3)c2cn1)c1ccccc1` [Example 145]: under setting [1], the 50% inhibitory concentration (IC50) worked out at 2.44 nM. Still for that read-out and setting: next, `CCOC(=O)CCc1n[nH]c2cc(NC(=O)NCc3ccccc3)ncc12` [Example 173, Ethyl 3-(6-(3-benzylureido)-1H-pyrazolo[4,3-c]pyridin-3-yl)propanoate]: 39.8 nM; `Cc1cc(-c2n[nH]c3cc(NC(=O)NC4CCOC(C)(C)C4)ncc23)ccn1` (stereo not drawn) [Example 196]: 23.6 nM; `Cc1cc(-c2n[nH]c3cc(NC(=O)NCC4CCCCO4)ncc23)ccn1` (stereo not drawn) [Example 469]: 1.21 nM. Turning to `Cc1cc(-c2n[nH]c3cc(NC(=O)NC(C)c4ccc(F)c(F)c4)ncc23)ccn1` (stereo not drawn) [Example 338], the half-inhibitory concentration (IC50) under setting [1] was 0.998 nM.

With `COCC(C)NC(=O)Nc1cc2[nH]nc(-c3ccnc(C)c3)c2cn1` (stereo not drawn) [Example 202], under setting [1], the IC50 is 11.6 nM. Consider `Cc1cc(-c2n[nH]c3cc(NC(=O)NCC(c4ccccc4)N4CCCCC4)ncc23)ccn1` (stereo not drawn) [Example 386], for which, under setting [1], the concentration for half-maximal inhibition (IC50) is 4.94 nM. `C[C@@H](NC(=O)Nc1cc2[nH]nc(C(=O)NCC3CCCC(O)C3)c2cn1)c1ccccc1` (stereo partly drawn) [Example 132]: the IC50 under setting [1] came out at 3.2 nM.

`COC(C)CNC(=O)Nc1cc2[nH]nc(-c3ccnc(C)c3)c2cn1` (stereo not drawn) [Example 585]: the half-inhibitory concentration (IC50) under setting [1] worked out at 1.26 nM. Turning to `Cc1cc(-c2n[nH]c3cc(NC(=O)N[C@@H](C)c4ccc(F)c(F)c4)ncc23)ccn1` [Example 411], under setting [1], the 50% inhibitory concentration (IC50) was determined as 34.1 nM. Consider `Cc1cc(-c2n[nH]c3cc(NC(=O)N[C@H](C)c4ccc(Cl)c(C)c4)ncc23)ccn1` [Example 341], for which the 50% inhibitory concentration (IC50) under setting [1] is 2.91 nM. `C[C@@H](NC(=O)Nc1cc2[nH]nc(-c3cccc(C#N)c3)c2cn1)c1ccccc1` [Example 672]: the 50% inhibitory concentration (IC50) under setting [1] was found to be 1.55 nM. Turning to `Cc1cc(-c2n[nH]c3cc(NC(=O)NCC4(O)CC4)ncc23)ccn1` [Example 37], under setting [1], the half-inhibitory concentration (IC50) is 9.9 nM.

As for `COc1cc(F)ccc1CNC(=O)Nc1cc2[nH]nc(-c3ccnc(C)c3)c2cn1` [Example 520], the 50% inhibitory concentration (IC50) under setting [1] stood at 0.44 nM. For `COC(=O)[C@@H](C)NC(=O)Nc1cc2[nH]nc(-c3ccnc(C)c3)c2cn1` [Example 461], the IC50 under setting [1] turned out to be 31.2 nM. For the compound `Cc1cc(-c2n[nH]c3cc(NC(=O)NCCO)ncc23)ccn1` [Example 573], the IC50 under setting [1] came to 7.22 nM.

On to `Cc1cc(-c2n[nH]c3cc(NC(=O)NCc4csc5ccc(Cl)cc45)ncc23)ccn1` [Example 488], for which the concentration for half-maximal inhibition (IC50) under setting [1] was 5.85 nM. As to `C[C@@H](NC(=O)Nc1cc2[nH]nc(-c3cnc(N(C)S(C)(=O)=O)nc3)c2cn1)c1ccccc1` [Example 292], under setting [1], the IC50 came out at 3.6 nM. In the case of `Cc1cc(-c2n[nH]c3cc(NC(=O)N[C@@H]4CCCOc5ccccc54)ncc23)ccn1` [Example 285], the concentration for half-maximal inhibition (IC50) under setting [1] came out at 0.382 nM. On the same count and under the same terms, next, `Cc1cc(-c2n[nH]c3cc(NC(=O)NCc4cc5ccccc5cn4)ncc23)ccn1` [Example 395]: 7.66 nM.
